Results as given in ChEMBL document CHEMBL1221345, “Cytotoxic flavonoids from the leaves of Cryptocarya chinensis” (J Nat Prod, 2010).
*1 amine or outer side, *2 acyl side, *3 side chain or, on linkers, in order; H or OH if unused. Where a SMILES comes first, the peptide text is derived from it. Bridges are numbered along the chain shown (N, C = ends). Roman numbers before positions name the chains, in order. [ ]: non-standard residue; d: D form. Actinocin(1to9) = Cc1c2oc3c(C)ccc(C(=O)[*:2])c3nc-2c(C(=O)[*:1])c(N)c1=O; NMeV = CN[C@H](C(=O)O)C(C)C; Sar = CNCC(=O)O

Key:
Assay type in all cases: functional, cell-based
SF-268 = assay: Cytotoxicity against human SF268 cells after 72 hrs by MTS reduction assay; conditions: SF-268, 72 h
NCI-H460 = assay: Cytotoxicity against human NCI-H460 cells after 72 hrs by MTS reduction assay; conditions: NCI-H460, 72 h
MCF7 = assay: Cytotoxicity against human MCF7 cells after 72 hrs by MTS reduction assay; conditions: MCF7, 72 h
KB = assay: Cytotoxicity against human KB cells

| SMILES | IC50 (SF-268) [µM] | IC50 (NCI-H460) [µM] | IC50 (MCF7) [µM] | IC50 (KB) [µM] |
| --- | --- | --- | --- | --- |
| COc1c(O)ccc(C(=O)/C=C/c2ccccc2)c1O [LARREIN] | > 50 | > 50 | > 50 | – |
| COc1cc(C=O)ccc1O [VANILLIN] | > 50 | > 50 | > 50 | – |
| CO[C@H]1CC2=C(C(=O)C[C@@H](c3ccccc3)O2)[C@H]2CC(=O)O[C@@H]12 [7-O-METHYLCRYPTOCHINONE A] | > 50 | > 50 | > 50 | – |
| COC(=O)C[C@H]1CC=CC(=O)/C1=C(O)/C=C/c1ccccc1 [INFECTOCARYONE] | 3.7 | 11 | 24.3 | 1.7 |
| COc1cc(O)c2c(c1)O[C@H](c1ccccc1)CC2=O [PINOSTROBIN] | > 50 | > 50 | > 50 | – |
| Cc1c2oc3c(C)ccc(C(=O)N[C@@H]4C(=O)N[C@H](C(C)C)C(=O)N5CCC[C@H]5C(=O)N(C)CC(=O)N(C)[C@@H](C(C)C)C(=O)O[C@@H]4C)c3nc-2c(C(=O)N[C@@H]2C(=O)N[C@H](C(C)C)C(=O)N3CCC[C@H]3C(=O)N(C)CC(=O)N(C)[C@@H](C(C)C)C(=O)O[C@@H]2C)c(N)c1=O [DACTINOMYCIN] (I: T[dV]P[Sar][NMeV] / II: T[dV]P[Sar][NMeV]; ester I:1-I:C, II:1-II:C; linker I:N-II:N via Actinocin(1to9)) | 0.016 | 0.008 | 0.103 | – |
| O=C1C[C@@H]2C3=C(C[C@H](O)[C@@H]2O1)O[C@H](c1ccccc1)CC3=O [CRYPTOCHINONE A] | > 50 | > 50 | > 50 | – |
| CO[C@@H]1CC2=C(C(=O)CC(c3ccccc3)O2)[C@H]2CC(=O)O[C@H]21 (stereo not given in full) | > 50 | > 50 | > 50 | – |
| O=C1C[C@@H]2C3=C(C=C[C@@H]2O1)O[C@@H](c1ccccc1)CC3=O [CRYPTOCARYANONE A] | 5 | 4.3 | 5.1 | 2.5 |
| O=C1C[C@H]2C3=C(C[C@H](O)[C@H]2O1)O[C@H](c1ccccc1)CC3=O [CRYPTOCHINONE B] | > 50 | > 50 | > 50 | – |
| CO[C@H]1CC2=C(C(=O)C[C@@H](c3ccccc3)O2)[C@@H]2CC(=O)O[C@H]12 [7-O-METHYLCRYPTOCHINONE B] | > 50 | > 50 | > 50 | – |
| COc1cc(O)c2c(=O)c(OC)c(-c3ccccc3)oc2c1OC | > 50 | > 50 | > 50 | – |
| COc1cc(O)c2c(=O)c(OC)c(-c3ccccc3)oc2c1 | > 50 | > 50 | > 50 | – |
| CC1=C(C)C(=O)C(CC[C@](C)(O)CCC[C@H](C)CCC[C@H](C)CCCC(C)C)=C(C)C1=O | > 50 | 37.3 | > 50 | – |
| COc1cc2oc(-c3ccccc3)cc(=O)c2c(O)c1OC [MOSLOFLAVONE] | > 50 | > 50 | > 50 | – |
| CC(C)=CCC/C(C)=C/CC/C(C)=C/CC/C=C(\C)CC/C=C(\C)CCC=C(C)C | > 50 | > 50 | > 50 | – |
